# Assay results: patent US10435389B2, “Octahydrocyclopenta[c]pyrrole allosteric inhibitors of SHP2” (Krouzon Pharmaceuticals, Inc., priority 2017, dated 2019)
# Counter-ions that a name gives are not always drawn.
# Target: T1, human recombinant SHP2 (Homo sapiens, UniProt Q06124)
# T1 sequence (Q06124 1-593): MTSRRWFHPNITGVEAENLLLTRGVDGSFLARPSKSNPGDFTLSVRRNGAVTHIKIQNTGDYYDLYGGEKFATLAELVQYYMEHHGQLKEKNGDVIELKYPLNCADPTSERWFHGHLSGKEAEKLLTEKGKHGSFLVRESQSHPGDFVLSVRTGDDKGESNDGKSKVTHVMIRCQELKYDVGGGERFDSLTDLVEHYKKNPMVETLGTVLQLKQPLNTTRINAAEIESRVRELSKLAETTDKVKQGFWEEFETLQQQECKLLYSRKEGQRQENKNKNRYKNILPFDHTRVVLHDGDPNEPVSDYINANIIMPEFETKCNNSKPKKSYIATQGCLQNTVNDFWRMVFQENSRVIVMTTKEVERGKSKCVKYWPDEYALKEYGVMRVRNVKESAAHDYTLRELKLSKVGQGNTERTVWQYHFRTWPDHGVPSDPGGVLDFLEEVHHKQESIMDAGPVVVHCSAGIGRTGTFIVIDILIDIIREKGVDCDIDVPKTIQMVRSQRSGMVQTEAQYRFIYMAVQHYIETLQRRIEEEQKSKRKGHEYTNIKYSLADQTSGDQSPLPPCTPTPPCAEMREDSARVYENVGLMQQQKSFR
# Assay: Protein Tyrosine Phosphatase (PTP) assay and IC50 measurements of inhibitors (DiFMUP fluorescence)
# Format: biochemical
# Details: 100 ng/mL human recombinant SHP2, 0.5 μM activating peptide IRS1_pY1172(dPEG8)pY1222, substrate DiFMUP 200 μM, room temperature; read-out: IC50 (SHP2 inhibition)
# Procedure: Example E: Protein Tyrosine Phosphatase (PTP) Assay and IC50 Measurements of Inhibitors
# The phosphatase activity of SHP2 was monitored using the surrogate substrate DiFMUP in a fluorescence assay format. The phosphatase reactions were performed at room temperature in 96-well black polystyrene plate, flat bottom plate using a final reaction volume of 100 μL with the following assay buffer conditions: 60 mM HEPES, pH 7.2, 75 mM NaCl, 75 mM KCl, 1 mM EDTA, 0.05% Tween-20, 5 mM DTT.
# To determine the IC50 of a compound, an eight-point dose response curve was generated in duplicate. Compounds were incubated at concentrations ranging from 0 μM to 10 μM with 100 ng/mL of human recombinant SHP2 and 0.5 μM of activating peptide IRS1_pY1172(dPEG8)pY1222 (sequence H2N-LN(pY)IDLDLV-(dPEG8)LST(pY)ASINFQK-amide) (SEQ ID NO 1). After 30 min incubation at room temperature (23-27° C.), the surrogate substrate DiFMUP (200 μM) was added to the reaction and incubated at room temperature for 30 min. The fluorescence signal was monitored using a microplate reader (Spectramax M5e, […]) using excitation and emission wavelengths of 340 and 450 nm, respectively. The inhibitor dose-response curves were analyzed using SoftmaxPro v5.2 software.
row,Compound,IC50 [µM]
1,"C[C@]1(N)C[C@H]2CN(c3ncc(-c4cccc(F)c4Cl)c(N)n3)C[C@H]2C1 [Example 12, (3aR,5r,6aS)-2-(4-amino-5-(2-chloro-3-fluorophenyl)pyrimidin-2-yl)-5-methyloctahydrocyclopenta[c]pyrrol-5-amine]",< 9
2,"C[C@]1(N)C[C@H]2CN(c3ncc(-c4cccc(Cl)c4Cl)c(N)n3)C[C@H]2C1 [Example 11, (3aR,5r,6aS)-2-(4-amino-5-(2,3-dichlorophenyl)pyrimidin-2-yl)-5-methyloctahydrocyclopenta[c]pyrrol-5-amine]",< 9
3,"C[C@]1(N)C[C@H]2CN(c3ncc(-c4cccnc4Cl)c(N)n3)C[C@H]2C1 [Example 13, (3aR,5r,6aS)-2-(4-amino-5-(2-chloropyridin-3-yl)pyrimidin-2-yl)-5-methyloctahydrocyclopenta[c]pyrrol-5-amine]",> 10
4,"C[C@]1(N)C[C@H]2CN(c3cnc(-c4cccnc4Cl)c(N)n3)C[C@H]2C1 [Example 4, (3aR,5r,6aS)-2-(6-amino-5-(2-chloropyridin-3-yl)pyrazin-2-yl)-5-methyloctahydrocyclopenta[c]pyrrol-5-amine]",< 9

# Further lines, results first:
row,IC50 [µM],Compound
1,< 9,"Cc1cccc(-c2ncc(N3C[C@@H]4C[C@](C)(N)C[C@@H]4C3)nc2N)c1Cl [Example 1, (3aR,5r,6aS)-2-(6-amino-5-(2-chloro-3-methylphenyl)pyrazin-2-yl)-5-methyloctahydrocyclopenta[c]pyrrol-5-amine hydrochloride salt]"
2,< 9,"Cc1cccc(-c2ncc(N3C[C@@H]4C[C@@](C)(N)C[C@@H]4C3)nc2N)c1Cl [Example 8, (3aR,5s,6aS)-2-(6-amino-5-(2-chloro-3-methylphenyl)pyrazin-2-yl)-5-methyloctahydrocyclopenta[c]pyrrol-5-amine]"
3,< 9,"C[C@]1(N)C[C@H]2CN(c3cnc(-c4cccc(Cl)c4Cl)c(N)n3)C[C@H]2C1 [Example 2, (3aR,5r,6aS)-2-(6-amino-5-(2,3-dichlorophenyl)pyrazin-2-yl)-5-methyloctahydrocyclopenta[c]pyrrol-5-amine]"
4,< 9,"C[C@@]1(N)C[C@H]2CN(c3cnc(-c4cccc(Cl)c4Cl)c(N)n3)C[C@H]2C1 [Example 7, (3aR,5s,6aS)-2-(6-amino-5-(2,3-dichlorophenyl)pyrazin-2-yl)-5-methyloctahydrocyclopenta[c]pyrrol-5-amine]"
5,< 9,"C[C@]1(N)C[C@H]2CN(c3cnc(-c4cccc(Cl)c4F)c(N)n3)C[C@H]2C1 [Example 5, (3aR,5r,6aS)-2-(6-amino-5-(3-chloro-2-fluorophenyl)pyrazin-2-yl)-5-methyloctahydrocyclopenta[c]pyrrol-5-amine]"
